From patent publication US6958233B2, “Process for the preparation of pharmaceutically acceptable salts of (R,S)-S-adenosyl-L-methionine” (Chementecno S.r.l., priority 2000, dated 2005)

Key:
[1] = HPLC analysis of the (S)-(+)-SAMe / (R)-(+)-SAMe diastereoisomer content (stability in time); format: physicochemical; conditions: after four months from the date of production
Method: 3 samples of SAMIR® [(R,S)-SAMe], produced by Knoll Farmaceutici S.p.A., were analyzed by HPLC. The values measured for each sample are as follows:
The products obtained according to the process of the invention in EXAMPLES 1-3, samples 4-6 respectively, were analyzed, similarly to what has been described in example 4, after four months from the date of their production.
The measured values for each sample were as follows: […]

[2] = test system: enzymatic transmethylation; conditions: De La Haba et al., J.A.C.S. 1959; cited from earlier work
[3] = Wu et al., Biochemistry 1983; cited from earlier work

SMILES	percentage of (R)-(+)-SAMe [1]	percentage of (S)-(+)-SAMe [1]	enzymatic activity for the transmethylation [2]	formation of the inactive diastereoisomer (R)-(+)-SAMe by spontaneous racemisation [3]	percentage of (R)-(+)-SAMe ([1]; listed as sample N. 4)
C[S+](CC[C@H](N)C(=O)[O-])C[C@H]1O[C@@H](n2cnc3c(N)ncnc32)[C@H](O)[C@@H]1O.Cc1ccc(S(=O)(=O)O)cc1.O=S(=O)(O)O.O=S(=O)(O)O (single isomer, unassigned) [SAMPLE 5, (SS, RS)-SAMe disulphate paratoluensulphonate]	2%	98%			
C[S@@+](CC[C@H](N)C(=O)[O-])C[C@H]1O[C@@H](n2cnc3c(N)ncnc32)C(O)C1O (stereo in doubt) [(R)-(+)-SAMe, (R)-(+)-S-adenosyl-L-methionine]			inactive		
C[S+](CC[C@H](N)C(=O)[O-])C[C@H]1O[C@@H](n2cnc3c(N)ncnc32)[C@H](O)[C@@H]1O.Cc1ccc(S(=O)(=O)O)cc1.O=S(=O)(O)O.O=S(=O)(O)O (single isomer, unassigned) [SAMPLE 6]	2%	98%			
C[S@@+](CC[C@H](N)C(=O)[O-])C[C@H]1O[C@@H](n2cnc3c(N)ncnc32)C(O)C1O (stereo in doubt) [(S)-(+)-SAMe, (S)-(+)-S-adenosyl-L-methionine]			enzymatically active	about 20%	
C[S+](CC[C@H](N)C(=O)[O-])C[C@H]1O[C@@H](n2cnc3c(N)ncnc32)[C@H](O)[C@@H]1O.Cc1ccc(S(=O)(=O)O)cc1.O=S(=O)(O)O.O=S(=O)(O)O (single isomer, unassigned) [SAMPLE 4]	1%	99%			1%
